# Source: patent US4892947A, “3(2H)Pyridazinone, process for its preparation and anti-allergic agent containing it” (Nissan Chemical Industries Ltd., priority 1985, dated 1990)
# Tests used:
# LTC4 = LTC4 antagonism in isolated guinea-pig trachea (method (i)); format: cell-based; conditions: Cavia porcellus, 5 min; 10^-5 g/ml test compound, 5 min prior to LTC4 (2×10^-8 g/ml)
# Experimental: (§1) (i) LTC4 and LTD4 antagonisms in guinea-pig trachea
# (§2) Antagonisms for LTC4 and LTD4 were determined in isolated guinea-pig trachea prepared as spiral strip. Tracheal preparations were suspended under 1 g tension in 10 ml organ baths and they were incubated for 1 hr prior to use. Contractile responses to LTC4 (2×10^-8 g/ml) and LTD4 (2×10^-8 g/ml) were obtained after the maximal response to histamine (10^-4 M). Test compounds dissolved in 100% dimethyl sulfoxide were added to the organ baths (final concentration of 10^-5 g/ml or 10^-6 g/ml) 5 min prior to LTC4 and LTD4 addition, and then contractile responses to LTC4 and LTD4 were compared with those of control which was obtained from a paired trachea in the absence of test compounds. LTC4 - and LTD4 -induced contractions were expressed as a percentage of the maximal response to histamine. The antagonism was determined as follows:
# (§3) Antagonism (%)=(1.0-% contraction in test/% contraction in control)×100
# LTD4 [1] = assay: LTD4 antagonism in isolated guinea-pig trachea (method (i)); format: cell-based; conditions: Cavia porcellus, 5 min; for inhibition at 10 µg/mL: 10^-5 g/ml test compound, 5 min prior to LTD4 (2×10^-8 g/ml); for inhibition at 1 µg/mL: 10^-6 g/ml test compound, Test method (i) (asterisk in Table 4), 5 min prior to LTD4
# Experimental: as §1, §2, §3
# [2] = test system: antigen-induced anaphylactic bronchoconstriction in passively sensitized guinea-pig; assay: Anaphylactic bronchoconstriction in passively sensitized guinea-pig, i.v. test; format: in vivo; conditions: i.v. 2 mg/kg, 1 min prior to EA challenge (10 mg/kg)
# Experimental: (§4) (iii) Effect on anaphylactic bronchoconstriction in passively sensitized guinea-pig
# Male guinea-pigs (350-450 g) were passively sensitized with intravenous (i.v.) injection of 0.125 ml rabbit anti-EA (egg albumin) serum (Cappel Laboratories) 1 to 2 days preceding the experiment. […] Sensitized guinea-pigs were anaesthetized with intraperitoneal injection of urethane (1.5 g/kg). The right jugular vein was cannulated for the administration of the all agents and trachea was cannulated to record total pulmonary resistance. Guinea-pigs were artificially ventilated by a small animal respirator (Shinano, Model SN-480-7) set at a stroke volume of 4.5 ml and a rate of 50 breaths per min. […] The increase in air overflow volume was expresssed as a percentage of the maximum bronchoconstriction obtained by clamping off the trachea. Following surgical preparation, the animals were pretreated with indomethacin (0.2 mg/kg, 10 min), pyrilamine (2 mg/kg, 6 min) and propanolol (0.1 mg/kg, 5 min) prior to the EA challenge (0.1 or 10 mg/kg). All test compounds were administered intraveneously or orally before the EA challenge. Inhibition (%) of bronchoconstriction was determined as follows: Inhibition (%)=(1.0%-maximum bronchoconstriction in test/% maximum bronchoconstriction in control)×100. […] The number of test animals was 4 in the i.v. test and 6 in the p.o. test.
# (a) The i.v. test: A test compound (2 mg/kg) was suspended or dissolved in 3% Tween 80 and intraveneously administered 1 min prior to the EA challlenge (10 mg/kg).
# ddY strain male mice [3] = assay: Acute toxicity test, intraperitoneal (Test method-(1)); format: in vivo; conditions: 7 days
# Experimental: The lethal ratio was determined in ddY strain male mice (4 weeks old) at 7 days after the intraperitoneal injection of test compounds.
# LTD4 [4] = assay: LTD4 antagonism in isolated guinea-pig trachea with indomethacin (method (ii)); format: cell-based; conditions: Cavia porcellus, 0.5 h, 10^-6 g/ml test compound, 30 min prior to LTD4
# Experimental: (ii) LTD4 antagonism in guinea-pig trachea
# Antagonism for LTD4 was determined in isolated guinea-pig trachea prepared as spiral strip. Tracheal preparations were suspended under 1 g tension in 10 ml organ baths containing […] of indomethacin and they were incubated for 1 hr prior to use. Contractile responses to LTD4 (2×10^-8 g/ml) were obtained after the maximal respone to hitamine (10^-4 M). Test compounds dissolved in 100% dimethyl sulfoxide were added to the organ baths (final concentration of 10^-6 g/ml) 30 min prior to LTD4 addition, and then contractile responses to LTD4 were compared with those of control which was obtained from a paired trachea in the absence of test compounds. LTD4 -induced contractions were expressed as a percentage of the maximal response to histamine. The antagonism was determined as follows:
# as §3
# [5] = test system: antigen-induced anaphylactic bronchoconstriction in passively sensitized guinea-pig; assay: Anaphylactic bronchoconstriction in passively sensitized guinea-pig, p.o. test; format: in vivo; conditions: for Inhibition (%) of bronchoconstriction: 2 hours prior to EA challenge (0.2 mg/kg)
# Experimental: as §4
# Male guinea-pigs (350-450 g) were passively sensitized with intravenous (i.v.) injection of 0.125 ml rabbit anti-EA (egg albumin) serum (Cappel Laboratories) 1 to 2 days preceding the experiment. Antigen-induced anaphylactic bronchoconstrictions were measured by modified method of Konzett and Rossler (Arch. Exp. Path. Pharmak., 195, 71, 1940). Sensitized guinea-pigs were anaesthetized with intraperitoneal injection of urethane (1.5 g/kg). The right jugular vein was cannulated for the administration of the all agents and trachea was cannulated to record total pulmonary resistance. Guinea-pigs were artificially ventilated by a small animal respirator (Shinano, Model SN-480-7) set at a stroke volume of 4.5 ml and a rate of 50 breaths per min. The change in pulmonary resistance was measured with a pressure transducer (Nihon Kohden, Model TP-602T) connected to a T-tube on the tracheal cannula. The increase in air overflow volume was expresssed as a percentage of the maximum bronchoconstriction obtained by clamping off the trachea. Following surgical preparation, the animals were pretreated with indomethacin (0.2 mg/kg, 10 min), pyrilamine (2 mg/kg, 6 min) and propanolol (0.1 mg/kg, 5 min) prior to the EA challenge (0.1 or 10 mg/kg). All test compounds were administered intraveneously or orally before the EA challenge. Inhibition (%) of bronchoconstriction was determined as follows: Inhibition (%)=(1.0%-maximum bronchoconstriction in test/% maximum bronchoconstriction in control)×100. The maximum bronchoconstriction was btained within 30 min after the EA challenge. The number of test animals was 4 in the i.v. test and 6 in the p.o. test.
# (b) The p.o. test: A test compound was suspended in 5% gum arabic and orally administered 2 hours prior to the EA challenge (0.2 mg/kg). The reaction of the control was 62±6%.
# ddY strain male mice [6] = assay: Acute toxicity test, oral (Test method-(2)); format: in vivo; conditions: 7 days
# Experimental: The lethal ratio was determined in ddY strain male mice (4 weeks old) at […] 7 days after the oral administration of test compounds.
SMILES,inhibition at 10 µg/mL (LTC4) [%],inhibition at 10 µg/mL (LTD4 [1]) [%],Inhibition (%) of bronchoconstriction [2] [%],Lethal ratio (Death number/Experimental number) (ddY strain male mice [3]; i.p. 200 mg/kg),Lethal ratio (Death number/Experimental number) (ddY strain male mice [3]; i.p. 400 mg/kg),inhibition at 1 µg/mL (LTD4 [1]) [%],other results
CCOc1cc(CNc2cnn(C)c(=O)c2Cl)ccc1OC [Compound No. 13],81,79,19,0/2,0/1,,
"CCCc1c(OCC(O)COc2ccc3c(=O)cc(C(=O)O)oc3c2CCC)ccc(C(C)=O)c1O (stereo not shown) [FPL-55712, reference compound]",100,97,27,,,76,inhibition at 1 µg/mL (LTD4 [4]): 94%; Inhibition of bronchoconstriction (in words) ([5]; p.o. 100 mg/kg): No substantial inhibition
CCCCOc1cc(CNc2cn[nH]c(=O)c2Br)ccc1OC [Compound No. 38],,,,,,80,Inhibition (%) of bronchoconstriction ([5]; p.o. 30 mg/kg): 53%; Lethal ratio (Death number/Experimental number) (ddY strain male mice [6]; oral 400 mg/kg): 0/3; Lethal ratio (Death number/Experimental number) (ddY strain male mice [6]; oral 800 mg/kg): 0/3
"COc1cccc(CNc2cnn(C3CCCC3)c(=O)c2Cl)c1 [Compound No. 3, 4-Chloro-5-(3-methoxybenzylamino)-2-cyclopentyl-3(2H)pyridazinone]",97,82,31,0/2,0/1,,
"COc1ccc(CNc2cnn(CC(=O)O)c(=O)c2Cl)cc1OC [Compound No. 10, 4-Chloro-5-(3,4-dimethoxybenzylamino)-2-(carboxymethyl)-3(2H)pyridazinone]",29,20,,,,,
CCCOc1cc(CNc2cn[nH]c(=O)c2Cl)ccc1OC [Compound No. 32],,100,,,,64,Inhibition (%) of bronchoconstriction ([5]; p.o. 50 mg/kg): 71%
